Reference: patent US9616051B2, “Drug targets to overcome de novo drug-resistance in multiple myeloma” (H. Lee Moffitt Cancer Center and Research Institute, Inc., priority 2008, dated 2017)
“Also recorded” adds a separate entry of the source.

Assays:
[1] = molecular target: T1, topo IIα (Homo sapiens, UniProt P11388); experiment: Nuclear-cytoplasmic fractionation and Western blot for topo IIα; assay type: cell-based; details: RPMI-H929 cells, 100 μM, 24 hours, relative to untreated controls
T1 construct: effect on the intracellular location of topo IIα in treated MM cells; endogenous in cells; host or cells: human multiple myeloma cells NCI-H929

[2] = test system: NCI-H929 (H929); experiment: CT-Glo cytotoxicity assay, H929 cells; assay type: cell-based, human; details: Homo sapiens, NCI-H929, 72-h CT-Glo, average ± SD
Source text: Compounds identified in Example 1 as the top scoring potential inhibitors for each of the two NES (20 each) were obtained from NCI and structures of these molecules confirmed using NMR and mass spectroscopy analysis, seen in FIGS. 4(A)-(C) and 5(A)-(D). The potential inhibitors were followed up using in vitro model cell cultures. MM cell lines NCI-H929 (H929) and RPMI-8226 (8226) were obtained from and tested for authenticity by the American Type Culture Collection (Manassas, Va.). All cell lines were grown as described previously (Turner, et al., Human topoisomerase IIalpha nuclear export is mediated by two CRM-1-dependent nuclear export signals. J Cell Sci 2004; 117: 3061-71).
(§1) The molecules with the highest docking scores were assayed for IC50 values. Cultures were tested for cytotoxicity using the CellTiter-Glo assay (CT-Glo cytotoxicity assay; Promega, Madison, Wis.), a luminescence-based homogeneous method for determining the number of viable cells in culture based on quantitation of the ATP present, which signals the presence of metabolically active cells (Corsino, et al., A novel class of cyclin-dependent kinase inhibitors identified by molecular docking act through a unique mechanism. J Biol Chem 2009; 284: 29945-55; Homsi, et al., Src activation in melanoma and Src inhibitors as therapeutic agents in melanoma. Melanoma Res 2009; 19: 167-75). All cells were assayed at log-phase growth conditions. Luminescence was measured with a Synergy 4 microplate reader (Bio-Tek Instruments, Inc., Winooski, Vt.). IC50 values were determined using a sigmoidal equilibrium model regression using XLfit version 5.2 (ID Business Solutions Ltd., Surrey, UK) (Corsino, et al., A novel class of cyclin-dependent kinase inhibitors identified by molecular docking act through a unique mechanism. J Biol Chem 2009; 284: 29945-55).

[3] = molecular target: T2, CRM1-topo IIα complexes (Homo sapiens, UniProt P11388); experiment: Co-immunoprecipitation of CRM1 with topo IIα; assay type: cell-based
T2 construct: CRM1-topo IIα complexes were isolated from cells by immunoprecipitation; endogenous in cells
Method: Human myeloma cells were placed at plateau concentrations (4×10^6 cells/ml), and NES inhibitors were added at 25 μM for 20 hours. Cells were collected, washed in PBS, and fractionated by a method adapted from Li et al. (Li Y, Bor Y C, Misawa Y, Xue Y, Rekosh D, Hammarskjold M L. An intron with a constitutive transport element is retained in a Tap messenger RNA. Nature 2006; 443: 234-7). Separated fractions containing nuclei or precipitated cytosol were dissolved in 2% SDS buffer and assayed by SDS-PAGE Western blot analysis. Blots were probed with an anti-topo IIα Kis1 antibody (Millipore Corp.). Lead compounds were also tested to determine if nuclear export inhibition was specific to topo IIα protein. Cells grown at log-phase concentrations were also fractionated. […], CRM1-topo IIα complexes were isolated from cells by immunoprecipitation using a combination of both protein A and protein G magnetic beads according to the manufacturer's protocol (Miltenyi Biotec, Cologne, Germany). Co-immunoprecipitation was performed with 2 μg of anti-CRM1 antibody (Santa Cruz Biotechnology, Inc., Santa Cruz, Calif.). Immunoprecipitation samples were separated by SDS-PAGE, transferred to nitrocellulose membranes, and probed with anti-topo IIα Kis1 antibody (Millipore, Corp., Billerica, Mass.) and anti-mouse horseradish peroxidase secondary antibody.

[4] = test system: FLOW; experiment: CT-Glo cytotoxicity assay, FLOW cells; assay type: cell-based; details: 72-h CT-Glo, average ± SD
Method: as §1

[5] = test system: SK-UT; experiment: CT-Glo cytotoxicity assay, SK-UT cells; assay type: cell-based; details: 72-h CT-Glo, average ± SD
Method: as §1

[6] = test system: Kg-1a; experiment: CT-Glo cytotoxicity assay, Kg-1a cells; assay type: cell-based; details: Homo sapiens, 72-h CT-Glo
Method: as §1

[7] = molecular target: T1, topo IIα; experiment: Immunofluorescence microscopy of intracellular location of topo IIα; assay type: cell-based; details: 25 μM NES inhibitor
Method: Slides were viewed with a fully automated, upright Zeiss Axio-ImagerZ.1 microscope (Carl Zeiss A G, Oberkochen, Germany). Briefly, the DAPI image was used as a mask to segment the nuclear region from the Alexa 594 image. The remaining portion of the Alexa 594 image represents the cytosol, and individual nucleus and cytosol images were analyzed.
H929 cells were mock treated with 0.1% DMSO in media or with 25 μM of NES inhibitor. The high density control cells, seen in FIG. 9(A) show high levels of topo II staining outside the nucleus, evidencing export of topo II from the nucleus.

[8] = test system: high-density MM cells (H929); experiment: Cleaved caspase 3 apoptosis assay, sensitization to doxorubicin
[9] = test system: MCF-7; experiment: CT-Glo cytotoxicity assay, MCF-7 cells; assay type: cell-based; details: Homo sapiens, MCF7, 72-h CT-Glo, average ± SD
Method: as §1

[10] = test system: PBMC; experiment: CT-Glo cytotoxicity assay, PBMC; assay type: cell-based; details: 72-h CT-Glo, average ± SD
Method: as §1

[11] = test system: cells modeling AML, breast cancer and fibroblastoma; experiment: Combination of NCI-9138 with other drugs (FIG. 8); assay type: cell-based; details: 25 μM with doxorubicin 2 μM, bortezomib 10 nM, dexamethasone, lenalidomide, melphalan, topotecan 10 μM
[12] = test system: p53; experiment: p53 nuclear export in low-density myeloma cells (nuclear fraction Western blot); assay type: cell-based, human; details: H929 at low density (log growth), 25 μM, 20 hours
Method: FIG. 14 is a blot of lead compounds tested to determine if nuclear export inhibition was specific to topo IIα protein. p53 was cycled from the nucleus into the cytoplasm in MM cells cultured at log growth conditions. Cells grown at log-phase concentrations were treated with the lead NES inhibitors (25 μM) or a leptomycin control for 20 hours and chemically fractionated. Nuclei were assayed by SDS-PAGE Western blot analysis for p53 protein (anti-p53 (DO-1), Santa Cruz Biotech, Inc). […] Lamin A/C (anti-lamin A/C, BD Pharmingen) is shown as a loading control.
Cells grown at low concentrations were treated with the lead NES inhibitors (25 μM) or a leptomycin B (5 nM) control for 20 hours and chemically fractionated. Nuclei were assayed by SDS-PAGE Western blot analysis for p53 protein.

[13] = test system: HL-60; experiment: CT-Glo cytotoxicity assay, HL-60 cells; assay type: cell-based; details: Homo sapiens, 72-h CT-Glo
Method: as §1

T1 sequence (P11388 whole entry): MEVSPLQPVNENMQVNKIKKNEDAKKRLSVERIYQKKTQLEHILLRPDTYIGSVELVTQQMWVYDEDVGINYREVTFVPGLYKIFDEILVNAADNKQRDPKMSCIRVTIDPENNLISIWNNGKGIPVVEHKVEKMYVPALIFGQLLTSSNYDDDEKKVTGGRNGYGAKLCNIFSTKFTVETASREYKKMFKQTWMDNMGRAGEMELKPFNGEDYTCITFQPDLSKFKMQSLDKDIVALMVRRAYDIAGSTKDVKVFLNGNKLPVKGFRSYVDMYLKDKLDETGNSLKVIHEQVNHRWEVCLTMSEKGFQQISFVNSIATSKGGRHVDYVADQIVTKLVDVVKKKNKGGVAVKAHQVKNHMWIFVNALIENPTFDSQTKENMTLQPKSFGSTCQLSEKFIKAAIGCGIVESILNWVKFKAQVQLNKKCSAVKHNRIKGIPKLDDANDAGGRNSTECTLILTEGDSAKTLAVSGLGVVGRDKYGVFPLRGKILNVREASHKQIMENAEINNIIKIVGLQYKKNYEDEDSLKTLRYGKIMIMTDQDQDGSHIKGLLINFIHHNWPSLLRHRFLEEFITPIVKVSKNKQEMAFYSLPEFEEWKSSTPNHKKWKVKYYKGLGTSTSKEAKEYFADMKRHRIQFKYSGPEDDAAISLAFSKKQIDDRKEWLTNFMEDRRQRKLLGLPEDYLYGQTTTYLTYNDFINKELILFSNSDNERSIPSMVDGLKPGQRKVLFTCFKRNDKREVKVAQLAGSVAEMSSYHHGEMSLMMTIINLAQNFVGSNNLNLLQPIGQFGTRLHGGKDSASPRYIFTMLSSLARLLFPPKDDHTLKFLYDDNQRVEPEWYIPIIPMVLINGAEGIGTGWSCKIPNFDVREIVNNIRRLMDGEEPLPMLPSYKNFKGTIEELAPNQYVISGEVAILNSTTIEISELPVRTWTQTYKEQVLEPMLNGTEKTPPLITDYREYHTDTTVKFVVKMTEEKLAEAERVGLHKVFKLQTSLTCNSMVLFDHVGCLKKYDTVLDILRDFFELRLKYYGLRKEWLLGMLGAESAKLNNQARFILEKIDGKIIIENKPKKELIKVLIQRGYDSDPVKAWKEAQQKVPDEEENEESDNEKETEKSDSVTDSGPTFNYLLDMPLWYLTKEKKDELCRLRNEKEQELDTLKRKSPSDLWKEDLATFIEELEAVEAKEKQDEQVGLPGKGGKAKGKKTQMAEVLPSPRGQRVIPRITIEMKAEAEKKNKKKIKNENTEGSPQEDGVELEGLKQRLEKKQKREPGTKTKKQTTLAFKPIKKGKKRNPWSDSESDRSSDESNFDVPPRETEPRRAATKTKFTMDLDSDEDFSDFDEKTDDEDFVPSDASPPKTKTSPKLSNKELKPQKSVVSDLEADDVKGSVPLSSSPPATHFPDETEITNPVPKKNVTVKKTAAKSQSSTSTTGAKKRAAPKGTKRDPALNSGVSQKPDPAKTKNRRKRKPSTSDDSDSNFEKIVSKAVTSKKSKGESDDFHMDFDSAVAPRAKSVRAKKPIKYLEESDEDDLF
T2 sequence (P11388 whole entry, one chain of several): as the sequence (P11388 whole entry) above

SMILES: O=C1c2ccccc2C(=O)C1C(=O)C(c1ccccc1)c1ccccc1 [NCI-9138, 2-(diphenylacetyl)-1H-indene-1,3(2H)-dione]
- Cytoplasmic level / nuclear localization of topo IIα, fractionation Western blot [1]: reduced cytoplasmic levels of topo IIα equivalent to that produced by the CRM-1 inhibitor ratjadone C
- IC50 [2]: 22.2 µM
- Co-immunoprecipitation of CRM1 with topo IIα ([3]; 50 μM for 20 hours (FIG. 12 legend)): blocked
- Binding of topo IIα to CRM1 (co-immunoprecipitation) ([3]; MM cells, 25 μM for 20 hours): prevented from binding to CRM1
- IC50 [4]: 31.7 µM
- IC50 [5]: 29.2 µM
- IC50 [6]: 21.3 µM
- Nuclear export of topo IIα by immunofluorescence ([7]; 20 hours, high-density (plateau) MM cells): overlapping staining of topo II with DAPI
- Fold-increase nuclear topo IIα ([7]; H929 cells, nucleus v cytoplasm fluorescence vs untreated high-density controls): 2.61 fold
- Sensitization of high-density MM cells to doxorubicin / synergism ([8]; 25 μM NES inhibitor, doxorubicin 2 μM): synergized with the topo II inhibitor doxorubicin
- Fold-Increased sensitization to dox ([8]; dox/drug (dox 2 μM) divided by dox alone): 4.13 ± 1.83 fold
- IC50 [9]: 27.2 µM
- IC50 [10]: 32.5 µM
- Synergism of NCI-9138 in drug combinations [11]: Synergism was seen with doxorubicin; also recorded: synergized exclusively with the topo II inhibitor doxorubicin
- Nuclear export of p53 [12]: did not prevent export of p53
- IC50 [13]: 28.3 µM
